{"source": "patent US10800791B2", "about": "“Triazole ACC inhibitors and uses thereof” (Gilead Apollo, LLC, priority 2015, dated 2020)", "key": {"human (hACC2)": {"molecular_target": "human (hACC2) (Homo sapiens, UniProt O00763)", "sequence (O00763 whole entry)": "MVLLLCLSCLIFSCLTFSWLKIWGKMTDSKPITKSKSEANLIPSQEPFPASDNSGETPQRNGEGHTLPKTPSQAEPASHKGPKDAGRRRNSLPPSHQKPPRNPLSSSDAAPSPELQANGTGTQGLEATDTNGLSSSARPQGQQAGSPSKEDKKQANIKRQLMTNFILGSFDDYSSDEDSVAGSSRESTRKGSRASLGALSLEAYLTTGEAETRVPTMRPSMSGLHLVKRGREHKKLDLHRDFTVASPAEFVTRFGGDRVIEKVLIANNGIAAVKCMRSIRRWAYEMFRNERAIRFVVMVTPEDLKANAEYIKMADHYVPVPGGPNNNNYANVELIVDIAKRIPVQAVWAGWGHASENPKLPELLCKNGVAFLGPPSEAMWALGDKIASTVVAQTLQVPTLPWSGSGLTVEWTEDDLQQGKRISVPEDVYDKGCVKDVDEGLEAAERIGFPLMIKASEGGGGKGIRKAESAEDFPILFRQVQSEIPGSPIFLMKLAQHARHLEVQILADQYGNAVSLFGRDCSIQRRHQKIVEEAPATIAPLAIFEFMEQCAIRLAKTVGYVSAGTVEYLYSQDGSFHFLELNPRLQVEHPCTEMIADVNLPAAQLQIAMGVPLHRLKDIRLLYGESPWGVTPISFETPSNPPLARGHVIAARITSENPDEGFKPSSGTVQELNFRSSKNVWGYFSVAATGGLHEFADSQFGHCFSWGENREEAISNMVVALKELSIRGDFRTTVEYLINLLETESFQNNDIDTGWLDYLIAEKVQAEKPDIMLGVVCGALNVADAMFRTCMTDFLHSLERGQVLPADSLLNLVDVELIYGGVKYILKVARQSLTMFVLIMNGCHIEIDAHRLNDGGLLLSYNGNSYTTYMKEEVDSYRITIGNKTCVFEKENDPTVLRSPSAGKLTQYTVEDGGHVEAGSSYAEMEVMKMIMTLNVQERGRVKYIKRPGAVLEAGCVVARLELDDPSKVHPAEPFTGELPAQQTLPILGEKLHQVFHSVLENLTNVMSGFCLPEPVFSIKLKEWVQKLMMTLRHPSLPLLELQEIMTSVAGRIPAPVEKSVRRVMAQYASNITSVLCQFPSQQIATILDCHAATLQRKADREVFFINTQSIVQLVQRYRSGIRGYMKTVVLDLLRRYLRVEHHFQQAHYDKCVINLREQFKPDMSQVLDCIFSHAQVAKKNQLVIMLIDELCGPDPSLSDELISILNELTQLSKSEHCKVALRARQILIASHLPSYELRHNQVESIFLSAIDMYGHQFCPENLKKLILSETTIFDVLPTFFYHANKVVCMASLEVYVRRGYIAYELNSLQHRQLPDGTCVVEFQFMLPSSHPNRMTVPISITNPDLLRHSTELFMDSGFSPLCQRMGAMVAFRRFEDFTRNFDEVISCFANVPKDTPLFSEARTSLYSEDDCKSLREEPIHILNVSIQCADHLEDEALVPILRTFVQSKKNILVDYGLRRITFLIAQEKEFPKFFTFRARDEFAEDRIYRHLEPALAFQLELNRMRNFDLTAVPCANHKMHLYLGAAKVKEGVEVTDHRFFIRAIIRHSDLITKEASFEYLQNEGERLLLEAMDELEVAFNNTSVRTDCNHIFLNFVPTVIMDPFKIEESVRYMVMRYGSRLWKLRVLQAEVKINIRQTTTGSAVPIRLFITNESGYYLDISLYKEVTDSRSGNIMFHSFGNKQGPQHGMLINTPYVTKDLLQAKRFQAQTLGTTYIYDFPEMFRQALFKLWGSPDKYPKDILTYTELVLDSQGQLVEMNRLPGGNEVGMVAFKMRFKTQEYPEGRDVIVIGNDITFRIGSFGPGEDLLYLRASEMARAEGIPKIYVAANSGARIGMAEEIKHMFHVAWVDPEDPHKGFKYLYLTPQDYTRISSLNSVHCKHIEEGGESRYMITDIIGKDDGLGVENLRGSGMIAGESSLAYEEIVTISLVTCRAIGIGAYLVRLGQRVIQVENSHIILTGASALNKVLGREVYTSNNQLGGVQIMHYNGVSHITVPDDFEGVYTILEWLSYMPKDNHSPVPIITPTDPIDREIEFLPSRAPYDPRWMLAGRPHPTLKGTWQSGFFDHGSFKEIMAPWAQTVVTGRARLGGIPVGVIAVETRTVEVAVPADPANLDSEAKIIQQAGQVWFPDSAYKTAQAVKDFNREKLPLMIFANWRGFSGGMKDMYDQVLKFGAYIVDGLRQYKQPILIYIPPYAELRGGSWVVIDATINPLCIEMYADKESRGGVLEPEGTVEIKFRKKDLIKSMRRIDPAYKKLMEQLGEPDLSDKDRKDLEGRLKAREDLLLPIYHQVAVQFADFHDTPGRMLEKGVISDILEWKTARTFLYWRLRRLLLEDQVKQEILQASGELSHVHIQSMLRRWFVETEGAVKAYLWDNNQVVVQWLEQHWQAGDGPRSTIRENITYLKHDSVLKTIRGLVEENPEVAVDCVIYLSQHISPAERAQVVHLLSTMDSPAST", "assay": "In vitro ACC inhibition assay (ADP-Glo), hACC2", "type": "biochemical", "settings": "5 nM ACC2, 20 μM ATP, 20 μM acetyl-CoA", "protocol": "The detailed procedure is as follows. […] 10 μL ADP glo reagent was added. […] 20 μL kinase detection reagent was added."}, "C. parapsilosis": {"test_system": "C. parapsilosis", "assay": "Antifungal Activity Assay (broth microtiter MIC), C. parapsilosis", "type": "cell-based, Candida parapsilosis", "settings": "Lodderomyces parapsilosis, ATCC22019, 48 h", "in_short": "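Colonies from 24 h Sabouraud dextrose agar plates (35° C) are suspended in RPMI 1640+MOPS and diluted to give 2.5×10^3 CFU/mL in the wells. Plates are set up per CLSI M27-A3. Visual MIC is recorded at 48 h.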"}, "[1]": {"test_system": "Collectotrichum graminicola (Cg)", "assay": "Growth inhibition assay of fungal pathogens, Cg", "type": "cell-based", "settings": "48 h, read-out: Concentration at 90% Inhibition Cg, Collectotrichum graminicola", "in_short": "(§1)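 Percent inhibition derived at 48 hours from OD600 and visual scores versus 2% DMSO control, with media+DMSO blank as background. Spore inocula in 17% V8 medium were sized from 48 h growth curves; compounds tested at final 50/10/2 or 2/0.4/0.08 ppm.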"}, "Diplodia maydis (Dm)": {"test_system": "Diplodia maydis (Dm)", "assay": "Growth inhibition assay of fungal pathogens, Dm", "type": "cell-based", "settings": "Stenocarpella maydis, 48 h, read-out: Concentration at 90% Inhibition Dm, Diplodia maydis", "in_short": "as §1"}, "[2]": {"test_system": "Fusarium moniliforme (Fm)", "assay": "Growth inhibition assay of fungal pathogens, Fm", "type": "cell-based", "settings": "for Concentration at 90% Inhibition Fm: Fusarium moniliforme, growth inhibition at 48 hours vs 2% DMSO control; for IC90: Fusarium verticillioides, 48 h, read-out: Concentration at 90% Inhibition Fm", "in_short": "as §1"}, "[3]": {"test_system": "Fusarium virguliforme (Fv)", "assay": "Growth inhibition assay of fungal pathogens, Fv", "type": "cell-based", "settings": "48 h", "in_short": "as §1"}, "[4]": {"test_system": "Phytophthora capsici (Pc)", "assay": "Growth inhibition assay of fungal pathogens, Pc", "type": "cell-based", "settings": "48 h", "in_short": "as §1"}, "Rhizoctonia solani (Rs)": {"test_system": "Rhizoctonia solani (Rs)", "assay": "Growth inhibition assay of fungal pathogens, Rs", "type": "cell-based", "settings": "48 h"}, "Septoria tritici (St)": {"test_system": "Septoria tritici (St)", "assay": "Growth inhibition assay of fungal pathogens, St", "type": "cell-based", "settings": "Zymoseptoria tritici, 48 h, read-out: Concentration at 90% Inhibition St, Septoria tritici", "in_short": "as §1"}, "fungal (fACC2)": {"molecular_target": "fungal (fACC2) (UniProt Q00955)", "sequence (Q00955 whole entry)": "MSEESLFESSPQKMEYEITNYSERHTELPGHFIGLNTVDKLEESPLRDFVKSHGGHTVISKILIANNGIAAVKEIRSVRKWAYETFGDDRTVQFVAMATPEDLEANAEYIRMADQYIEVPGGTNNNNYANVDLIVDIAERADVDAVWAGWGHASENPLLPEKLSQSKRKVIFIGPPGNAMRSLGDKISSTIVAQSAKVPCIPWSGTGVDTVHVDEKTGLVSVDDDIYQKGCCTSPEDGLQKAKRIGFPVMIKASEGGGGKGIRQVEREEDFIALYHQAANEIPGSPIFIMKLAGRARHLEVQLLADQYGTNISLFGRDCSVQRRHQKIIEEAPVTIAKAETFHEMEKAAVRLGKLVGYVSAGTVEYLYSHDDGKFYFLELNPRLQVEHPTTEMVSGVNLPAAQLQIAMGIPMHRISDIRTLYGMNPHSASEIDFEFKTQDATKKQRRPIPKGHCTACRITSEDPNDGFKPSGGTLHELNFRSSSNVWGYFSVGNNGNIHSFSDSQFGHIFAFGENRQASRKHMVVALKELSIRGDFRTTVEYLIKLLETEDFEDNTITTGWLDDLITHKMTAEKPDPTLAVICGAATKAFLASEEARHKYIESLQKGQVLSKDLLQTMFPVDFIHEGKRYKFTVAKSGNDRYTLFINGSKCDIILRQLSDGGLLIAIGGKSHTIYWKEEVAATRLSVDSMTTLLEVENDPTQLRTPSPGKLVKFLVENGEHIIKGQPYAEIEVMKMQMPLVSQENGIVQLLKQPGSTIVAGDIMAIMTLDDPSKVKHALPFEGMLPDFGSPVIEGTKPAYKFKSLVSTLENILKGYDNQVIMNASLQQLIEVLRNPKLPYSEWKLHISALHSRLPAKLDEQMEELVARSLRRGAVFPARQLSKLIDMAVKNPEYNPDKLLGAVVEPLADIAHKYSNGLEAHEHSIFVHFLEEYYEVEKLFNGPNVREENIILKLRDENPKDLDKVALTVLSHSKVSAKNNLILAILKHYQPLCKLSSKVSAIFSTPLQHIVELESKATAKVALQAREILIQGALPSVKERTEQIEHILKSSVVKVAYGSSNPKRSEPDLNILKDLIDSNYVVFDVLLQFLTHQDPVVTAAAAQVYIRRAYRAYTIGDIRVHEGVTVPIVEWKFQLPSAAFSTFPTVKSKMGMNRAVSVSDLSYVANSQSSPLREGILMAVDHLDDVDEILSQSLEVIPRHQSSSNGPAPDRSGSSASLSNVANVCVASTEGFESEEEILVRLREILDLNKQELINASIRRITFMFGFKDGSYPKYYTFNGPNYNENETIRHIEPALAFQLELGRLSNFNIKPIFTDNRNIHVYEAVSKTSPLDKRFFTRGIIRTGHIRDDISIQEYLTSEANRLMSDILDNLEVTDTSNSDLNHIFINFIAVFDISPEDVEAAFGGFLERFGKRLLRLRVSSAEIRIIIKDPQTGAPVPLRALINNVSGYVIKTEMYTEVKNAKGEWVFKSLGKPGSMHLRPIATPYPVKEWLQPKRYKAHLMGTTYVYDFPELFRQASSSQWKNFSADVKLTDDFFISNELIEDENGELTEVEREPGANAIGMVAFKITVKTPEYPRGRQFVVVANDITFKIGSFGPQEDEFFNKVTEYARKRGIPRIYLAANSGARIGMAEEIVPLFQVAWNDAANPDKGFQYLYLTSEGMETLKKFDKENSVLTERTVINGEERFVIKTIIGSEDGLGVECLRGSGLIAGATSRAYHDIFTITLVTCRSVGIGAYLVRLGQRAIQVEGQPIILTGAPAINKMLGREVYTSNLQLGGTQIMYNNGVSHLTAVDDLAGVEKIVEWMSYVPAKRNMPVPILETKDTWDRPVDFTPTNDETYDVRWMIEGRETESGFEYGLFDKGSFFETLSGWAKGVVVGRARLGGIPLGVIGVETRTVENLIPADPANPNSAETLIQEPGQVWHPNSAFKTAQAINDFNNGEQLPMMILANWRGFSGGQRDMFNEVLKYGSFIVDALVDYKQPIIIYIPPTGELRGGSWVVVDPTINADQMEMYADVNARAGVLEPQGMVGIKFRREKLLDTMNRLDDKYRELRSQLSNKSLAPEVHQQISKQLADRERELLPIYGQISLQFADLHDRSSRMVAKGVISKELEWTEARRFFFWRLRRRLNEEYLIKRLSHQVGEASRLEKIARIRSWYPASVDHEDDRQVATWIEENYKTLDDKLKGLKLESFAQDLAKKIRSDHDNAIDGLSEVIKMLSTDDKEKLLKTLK", "settings": "read-out: fACC2 (in vitro ACC2 Inhibition Assay, IC50), ADP-Glo, 5 nM ACC2, 20 μM ATP, 20 μM acetyl-CoA"}, "[5]": {"settings": "read-out: MIC, C. parapsilosis ATCC 22019, Table 3a, 3 replicates, MIC recorded at 48 h"}, "[6]": {"settings": "read-out: MIC, C. parapsilosis ATCC 22019, Table 3b (additional results), 3 replicates, MIC recorded at 48 h"}, "[7]": {"settings": "growth inhibition at 48 hours vs 2% DMSO control"}, "[8]": {"settings": "growth inhibition vs 2% DMSO control at 48 hours"}, "[9]": {"settings": "read-out: Concentration at 90% Inhibition Fv, Fusarium virguliforme, growth inhibition at 48 hours vs 2% DMSO control"}, "[10]": {"settings": "read-out: Concentration at 90% Inhibition Fv, Fusarium virguliforme, growth inhibition vs 2% DMSO control at 48 hours"}, "[11]": {"settings": "read-out: Concentration at 90% Inhibition Pc, Phytophthora capsici, growth inhibition at 48 hours vs 2% DMSO control"}, "[12]": {"settings": "read-out: Concentration at 90% Inhibition Pc, Phytophthora capsici, growth inhibition vs 2% DMSO control at 48 hours"}, "[13]": {"settings": "read-out: Concentration at 90% Inhibition Rs, Rhizoctonia solani, mycelial plugs, growth inhibition at 48 hours vs 2% DMSO control"}, "[14]": {"settings": "read-out: Concentration at 90% Inhibition Rs, Rhizoctonia solani, mycelial plugs, growth inhibition vs 2% DMSO control at 48 hours"}}, "note": "Like-named read-outs stand apart in the source and are kept apart here.", "data": [{"smiles": "COc1ccc(F)cc1[C@H](Cn1c(=O)n([C@@H](C)C(=O)NC(C)C)c(=O)c2c(C)c(-n3nccn3)sc21)OCCO", "note": "[Compound I-88, (S)-2-(1-((R)-2-(5-fluoro-2-methoxyphenyl)-2-(2-hydroxyethoxy)ethyl)-5-methyl-2,4-dioxo-6-(2H-1,2,3-triazol-2-yl)-1,4-dihydro-thieno[2,3-d]pyrimidin-3(2H)-yl)-N-isopropylpropanamide]", "values": [{"measurement": "IC50", "setting": "human (hACC2); Table 2a", "value": "5 to 10", "unit": "nM"}, {"measurement": "IC50", "setting": "human (hACC2); Table 2b, additional results", "value": "5 to 10", "unit": "nM"}, {"measurement": "MIC", "setting": "C. parapsilosis; [5]", "value": "1.1 to 2", "unit": "µg/mL"}, {"measurement": "MIC", "setting": "C. parapsilosis; [6]", "value": "1.01 to 2", "unit": "µg/mL"}, {"measurement": "IC90", "setting": "[1]; [7]", "value": 0.08, "unit": "µg/mL"}, {"measurement": "IC90", "setting": "[1]; [8]", "value": 0.08, "unit": "µg/mL"}, {"measurement": "IC90", "setting": "Diplodia maydis (Dm); [7]", "value": 0.4, "unit": "µg/mL"}, {"measurement": "IC90", "setting": "Diplodia maydis (Dm); [8]", "value": 0.4, "unit": "µg/mL"}, {"measurement": "Concentration at 90% Inhibition Fm", "setting": "[2]", "value": "AA (compound concentration of 0.08 ppm at 90% inhibition of fungal pathogens)"}, {"measurement": "IC90", "setting": "[2]", "value": 0.08, "unit": "µg/mL"}, {"measurement": "IC90", "setting": "[3]; [9]", "value": 2, "unit": "µg/mL"}, {"measurement": "IC90", "setting": "[3]; [10]", "value": 2, "unit": "µg/mL"}, {"measurement": "IC90", "setting": "[4]; [11]", "value": 2, "unit": "µg/mL"}, {"measurement": "IC90", "setting": "[4]; [12]", "value": 2, "unit": "µg/mL"}, {"measurement": "IC90", "setting": "Rhizoctonia solani (Rs); [13]", "value": 0.08, "unit": "µg/mL"}, {"measurement": "IC90", "setting": "Rhizoctonia solani (Rs); [14]", "value": 0.08, "unit": "µg/mL"}, {"measurement": "IC90", "setting": "Septoria tritici (St); [7]", "value": 2, "unit": "µg/mL"}, {"measurement": "IC90", "setting": "Septoria tritici (St); [8]", "value": 10, "unit": "µg/mL"}, {"measurement": "IC50", "setting": "fungal (fACC2); Table 2a", "value": "1 to 5", "unit": "nM"}, {"measurement": "IC50", "setting": "fungal (fACC2); Table 2b, additional results", "value": "0.3 to 1", "unit": "nM"}]}, {"smiles": "COc1ccc(F)cc1[C@H](Cn1c(=O)n([C@H](C)C(=O)NC(C)C)c(=O)c2c(C)c(-n3nccn3)sc21)OCCO", "note": "[Compound I-89, (R)-2-(1-((R)-2-(5-fluoro-2-methoxyphenyl)-2-(2-hydroxy-ethoxy)ethyl)-5-methyl-2,4-dioxo-6-(2H-1,2,3-triazol-2-yl)-1,4-dihydrothieno[2,3-d]pyrimidin-3(2H)-yl)-N-isopropylpropanamide]", "values": [{"measurement": "IC50", "setting": "human (hACC2); Table 2a", "value": "10 to 40", "unit": "nM"}, {"measurement": "IC50", "setting": "human (hACC2); Table 2b, additional results", "value": "5 to 10", "unit": "nM"}, {"measurement": "MIC", "setting": "C. parapsilosis; [5]", "value": "2.1 to 4", "unit": "µg/mL"}, {"measurement": "MIC", "setting": "C. parapsilosis; [6]", "value": "1.01 to 2", "unit": "µg/mL"}, {"measurement": "IC90", "setting": "[1]; [7]", "value": "> 50", "unit": "µg/mL"}, {"measurement": "IC90", "setting": "[1]; [8]", "value": "> 50", "unit": "µg/mL"}, {"measurement": "IC90", "setting": "Diplodia maydis (Dm); [7]", "value": 2, "unit": "µg/mL"}, {"measurement": "IC90", "setting": "Diplodia maydis (Dm); [8]", "value": 10, "unit": "µg/mL"}, {"measurement": "Concentration at 90% Inhibition Fm", "setting": "[2]", "value": "AA (compound concentration of 0.08 ppm at 90% inhibition of fungal pathogens)"}, {"measurement": "IC90", "setting": "[2]", "value": 0.08, "unit": "µg/mL"}, {"measurement": "IC90", "setting": "[3]; [9]", "value": 2, "unit": "µg/mL"}, {"measurement": "IC90", "setting": "[3]; [10]", "value": 2, "unit": "µg/mL"}, {"measurement": "IC90", "setting": "[4]; [11]", "value": "> 50", "unit": "µg/mL"}, {"measurement": "IC90", "setting": "[4]; [12]", "value": "> 50", "unit": "µg/mL"}, {"measurement": "IC90", "setting": "Rhizoctonia solani (Rs); [13]", "value": 2, "unit": "µg/mL"}, {"measurement": "IC90", "setting": "Rhizoctonia solani (Rs); [14]", "value": 2, "unit": "µg/mL"}, {"measurement": "IC90", "setting": "Septoria tritici (St); [7]", "value": "> 50", "unit": "µg/mL"}, {"measurement": "IC90", "setting": "Septoria tritici (St); [8]", "value": "> 50", "unit": "µg/mL"}, {"measurement": "IC50", "setting": "fungal (fACC2); Table 2a", "value": "1 to 5", "unit": "nM"}, {"measurement": "IC50", "setting": "fungal (fACC2); Table 2b, additional results", "value": "1 to 5", "unit": "nM"}]}]}
